# Columns and labels:
# [1] = tested on: myeloid derived suppressor cells (MDSCs); test: Flow cytometry of MDSCs in lung tissue, 4T1 tumor resection model; type: in vivo, mice; settings: 10 μg/kg, 3 weeks post tumor resection
# Procedure: BALB/c mice were subcutaneously injected with 4T1-Luc2 cells (5×10^5/100 μl PBS/mouse) into the fourth mammary fat pad under isoflurane anesthesia. Tumor growth was monitored by measuring the tumor volume according to the formula: volume=length×(width)^2/2. After tumors were established (180-200 mm^3) on day 14, test mice were divided into different groups (8 mice/group) and subjected to different treatments. At 15 days post tumor cell implantation, primary 4T1 tumors in situ were surgically removed by a tumor resection process. For drug treatment, mice were administered with different agents, including vehicle-control (PBS), mouse IL-25 protein (10 μg/kg, ProSpec, Vineland, N.J.), Q2-3 (2, 20 or 100 μg/kg) or docetaxel (2 mg/kg; Sigma-Aldrich), by intravenous injection for 3 weeks (3 injections/week) post tumor resection. […] Bioluminescence signals from the 4T1-luc2 tumor cells in test mice were analyzed using a non-invasive IVIS imaging system (Calipers, Hopkinton, Mass.) after intraperitoneal injection of 150 mg/kg D-luciferin (NanoLight technology, Pinetop, Ariz.). […]
# Suppressive effects of Q2-3 on in vivo expansion of MDSC populations were also evaluated for both the monocytic (CD11b^+Ly6C^+) and granulocytic (CD11b^+Ly6G^+) subsets of MDSCs. The populations of these two MDSC cell types in lung tissues of test mice were analyzed and compared at 3 weeks post tumor resection.
# [2] = tested on: MCF-7 cells; settings: cited from earlier work
# [3] = tested on: Jurkat cells; settings: cited from earlier work
smiles,measurement,setting,value
"COC(=O)/C=C/c1cc(O)c2c(c1)C(C(=O)OC)C(c1ccc(O)c(O)c1)O2 (stereo not shown) [Q2-3, methyl(E)-3-[2-(3,4-dihydroxyphenyl)-7-hydroxy-3-methoxycarbonyl-2,3-dihydro-1-benzofuran-5yl]-prop-2-enoate]",monocytic CD11b+Ly6C+ MDSC population in lung tissue,[1]; PBS control 0.9%,0.4%
same,granulocytic CD11b+Ly6G+ MDSC population in lung tissue,[1]; PBS control 42.9%,12.5%
same,anti-proliferation effect,[2],significant anti-proliferation effect
same,anti-proliferation effect,[3],significant anti-proliferation effect

# Source: patent publication US11207289B2, “Use of benzofuran lignans to induce IL-25 expression and suppress mammary tumor metastasis” (ACADEMIA SINICA, priority 2016, dated 2021)
